{"source": "patent US10577356B2", "about": "“Beta-arrestin-biased cannabinoid CB1 receptor agonists and methods for making and using them” (priority 2014, dated 2020)", "key": {"CB1 [1]": {"molecular_target": "T1, CB1 (Homo sapiens, UniProt P21554)", "assay": "Effect on CP55,940 binding (Bmax) at CB1 (FIG. 3)", "conditions": "compared with ORG27569"}, "CB1 [2]": {"molecular_target": "T1, CB1", "assay": "Antagonism of CP55,940's [35S]GTPγS signaling / allosteric modulation of CB1 (FIG. 3)", "assay_type": "biochemical", "conditions": "compared with ORG27569", "procedure": "(§1) Compounds were tested using a GTPγS assay as previously described (Shore D M, et al. J Biol Chem. 2014; 289(9):5828-45; incorporated herein by reference in its entirety). Compounds were tested using an ERK assay as previously described (Kapur A, et al. J Biol Chem. 2009; 284:29817-29827; incorporated herein by reference in its entirety)."}, "CB1 [3]": {"molecular_target": "T2, CB1 (Mus musculus, UniProt P47746)", "T2 construct": "from tissue", "T2 sequence (P47746 whole entry)": "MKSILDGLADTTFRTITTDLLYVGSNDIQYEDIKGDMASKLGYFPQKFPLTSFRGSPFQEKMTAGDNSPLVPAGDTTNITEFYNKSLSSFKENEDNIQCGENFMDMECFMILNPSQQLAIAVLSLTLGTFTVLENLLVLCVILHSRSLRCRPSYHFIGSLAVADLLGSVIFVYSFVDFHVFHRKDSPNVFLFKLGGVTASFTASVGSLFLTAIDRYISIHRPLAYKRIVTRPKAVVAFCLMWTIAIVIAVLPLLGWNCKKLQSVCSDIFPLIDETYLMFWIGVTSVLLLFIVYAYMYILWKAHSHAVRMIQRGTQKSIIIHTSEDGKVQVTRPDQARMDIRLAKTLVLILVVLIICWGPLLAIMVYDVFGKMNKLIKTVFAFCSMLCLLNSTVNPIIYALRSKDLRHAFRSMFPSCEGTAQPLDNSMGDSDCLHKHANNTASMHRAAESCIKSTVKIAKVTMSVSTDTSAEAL", "assay": "Basal G protein signaling, GTP-gamma-S binding, compound applied alone, membranes (FIG. 4-7)", "assay_type": "biochemical", "procedure": "as §1"}, "CB1 [4]": {"molecular_target": "T1, CB1", "assay": "ERK assay, pERK production in cells (FIG. 8, FIG. 10)", "assay_type": "cell-based", "conditions": "compound applied alone", "procedure": "as §1"}, "CB1 [5]": {"molecular_target": "T1, CB1", "assay": "GTPγS stimulation levels in hCB1/HEK cells (FIG. 9)", "assay_type": "biochemical", "parameters": "expressed in transfected cells; host or cells: HEK cells (hCB1/HEK)", "conditions": "compound applied alone", "procedure": "as §1"}}, "note": "“Also recorded” adds a separate entry of the source."}
{"smiles": "CCc1c(C(=O)NCCc2ccc(N3CCCCC3)cc2C2CC2)[nH]c2ccc(Cl)cc12", "note": "[Compound 3, 5-Chloro-N-{2-[2-cyclopropyl-4-(piperidin-1-yl)phenyl]ethyl}-3-ethyl-1H-indole-2-carboxamide]", "values": [{"measurement": "effect on CP55,940's Bmax", "setting": "CB1 [1]", "value": "does not improve CP55,940's Bmax (and may actually reduce it)"}, {"measurement": "allosteric modulation of CB1 (effects on binding and G protein-mediated signaling)", "setting": "CB1 [2]", "value": "does not act as an allosteric modulator of CB1"}, {"measurement": "effect on basal G protein signaling (GTP-gamma-S binding)", "setting": "CB1 [3]", "value": "no effect on GTP-gamma-S binding"}, {"measurement": "ERK signaling / pERK production", "setting": "CB1 [4]", "value": "robust effect, particularly at early time points, compared to CP (CP55,940); also recorded: does generate an ERK signal"}, {"measurement": "GTP-gamma-S binding at the human CB1 receptor", "setting": "CB1 [5]", "value": "no effect on GTP-gamma-S binding; also recorded: did not have any significant effect on [^35S]GTPλS signaling when applied alone"}]}
{"smiles": "CCc1c(C(=O)NCCc2ccc(N3CCCCC3)cc2)[nH]c2ccc(Cl)cc12", "note": "[ORG27569, reference compound]", "values": [{"measurement": "GTP-gamma-S binding at the human CB1 receptor", "setting": "CB1 [5]", "value": "causes a decrease (including below basal)"}]}
{"smiles": "CCCCCCC(C)(C)c1ccc([C@@H]2C[C@H](O)CC[C@H]2CCCO)c(O)c1", "note": "[CP55940, reference compound]", "values": [{"measurement": "GTP-gamma-S binding at the human CB1 receptor", "setting": "CB1 [5]", "value": "causes a rise in GTP-gamma-S binding"}]}
{"smiles": "O=C(NCCc1ccc(N2CCCCC2)cc1)c1[nH]c2ccc(Cl)cc2c1Cc1ccccc1", "note": "[Compound 4, 3-Benzyl-5-chloro-N-{2-[4-(piperidin-1-yl)phenyl]ethyl}-1H-indole-2-carboxamide]", "values": [{"measurement": "effect on CP55,940's Bmax", "setting": "CB1 [1]", "value": "did not affect CP55,940's Bmax"}, {"measurement": "antagonism of CP55,940's [35S]GTPλS signaling", "setting": "CB1 [2]", "value": "antagonized CP55,940's [^35S]GTPλS signaling as well as ORG27569"}, {"measurement": "effect on basal G protein signaling (GTP-gamma-S binding)", "setting": "CB1 [3]", "value": "no effect on GTP-gamma-S binding; also recorded: does not act as an inverse agonist of [^35S]GTPλS signaling"}, {"measurement": "ERK signaling / pERK production", "setting": "CB1 [4]", "value": "may act as a weak inverse agonist of ERK signaling"}]}
{"smiles": "CCc1c(C(=O)NC[C@H](O)c2ccc(N3CCCCC3)cc2)[nH]c2ccc(Cl)cc12", "note": "[Compound 2, 5-Chloro-3-ethyl-N-[(2R)-2-hydroxy-2-[4-(piperidin-1-yl)phenyl]ethyl]-1H-indole-2-carboxamide]", "values": [{"measurement": "effect on CP55,940's Bmax", "setting": "CB1 [1]", "value": "improves CP55,940's Bmax better than as ORG27569"}, {"measurement": "allosteric modulation of CB1 (effects on binding and G protein-mediated signaling)", "setting": "CB1 [2]", "value": "more potent negative allosteric modulator than ORG27569"}, {"measurement": "antagonism of CP55,940's [35S]GTPλS signaling", "setting": "CB1 [2]", "value": "antagonizes CP55,940's [^35S]GTPλS signaling as well as ORG27569"}, {"measurement": "effect on basal G protein signaling (GTP-gamma-S binding)", "setting": "CB1 [3]", "value": "partial agonist in membranes; also recorded: does not act as an inverse agonist of [^35S]GTPλS signaling; also recorded: may act as a weak agonist of G protein-mediated signaling"}]}
{"smiles": "CCc1c(C(=O)NC[C@@H](O)c2ccc(N3CCCCC3)cc2)[nH]c2ccc(Cl)cc12", "note": "[Compound 1, 5-Chloro-3-ethyl-N-[(2S)-2-hydroxy-2-[4-(piperidin-1-yl)phenyl]ethyl]-1H-indole-2-carboxamide]", "values": [{"measurement": "effect on CP55,940's Bmax", "setting": "CB1 [1]", "value": "does not improve CP55,940's Bmax as well as ORG27569"}, {"measurement": "allosteric modulation of CB1 (effects on binding and G protein-mediated signaling)", "setting": "CB1 [2]", "value": "less potent and efficacious negative allosteric modulator of CB1 than ORG27569"}, {"measurement": "antagonism of CP55,940's [35S]GTPλS signaling", "setting": "CB1 [2]", "value": "does not antagonize CP55,940's [^35S]GTPλS signaling as well as ORG27569"}, {"measurement": "effect on basal G protein signaling (GTP-gamma-S binding)", "setting": "CB1 [3]", "value": "no effect on GTP-gamma-S binding; also recorded: does not act as an inverse agonist of [^35S]GTPλS signaling"}]}
